The source of these data is patent US20180289656A1, “COMPOSITIONS AND METHODS TO TREAT URINARY TRACT INFECTIONS” (Hennepin Life Sciences, LLC, priority 2015, published 2018).

Assay type in all cases: cell-based
Experiment [1] relates to S. aureus biofilms. The experiment in a line: biofilm formation by crystal violet staining, absorbance at 595 nm. The following applies: 10 fold lower GML concentrations than necessary to inhibit bacterial growth. The method, then:
(§1) To directly assess the effect of GML on the formation of biofilms, 96 well plastic microtiter plates were inoculated with approximately 10^6/mL of one of three strains of S. aureus (MN8, a methicillin sensitive strain; MNWH, a methicillin resistant strain; or MW2, a methicillin resistant strain), or with non-typable Haemophilus influenzae. Wells were cultured stationary at 37° C. for 24 and 48. As a control, in one set of three wells for each microbe, the wells were agitated 3 times by pipetting up and down. The bactericidal activity of GML was determined by measuring CFU/mL in supernatants. After removal of supernatants, wells were washed three times with PBS to remove unbound cells, and were then treated with crystal violet for 30 minutes. Wells were again washed three times with PBS to remove unbound crystal violet. Finally, wells were treated with ethanol to solubilize biofilm associated crystal violet. Absorbance at 595 nm was determined by an ELISA reader to measure biofilm formation.

Experiment [2] concerns S. aureus (MN8, MNWH, MW2). Nature of the experiment: bactericidal activity / growth measured as CFU/mL in supernatants of microtiter plate cultures. The conditions noted are these: GML at 500 μg/mL; all three S. aureus strains (MN8, MNWH, MW2); both 24 and 48 hours. The method, then:
as §1

Experiment [3] concerns S. aureus. Nature of the experiment: bactericidal activity against 54 strains of S. aureus. An excerpt: 5% w/v GML nonaqueous gel is bactericidal for 54 strains of S. aureus, including highly antibiotic resistant organisms and multiple clonal groups. GML is antimicrobial on contact, killing the organisms in only a few minutes. The estimated chance of S. aureus developing resistance to GML is […]; thus resistance is highly unlikely.

In the case of Glycerol monolaurate [GML], the “biofilm formation (crystal violet staining of retained biofilm material)” value in experiment [1] is “significantly inhibited”. The “growth as measured by CFU/mL” value in experiment [2] was “completely inhibited”. The “time to kill the organisms (antimicrobial on contact)” value in experiment [3] was “a few minutes”.
